Test results as given in patent publication US20030033616A1, “Imaging marker transgenes” (priority 2001, published 2003).

Columns and labels:
ScFv FITC on CHO cells = assay: Competition binding on CHO ScFv FITC-expressing cells; conditions: in the presence of 1 nM 111In-DTPA-FITC as tracer
Method: Wild-type or ScFv FITC-expressing cells were plated at 3×10^4 cells/well in 96-well plates one day before binding experiments. […] Cells were gently agitated for 45 minutes at rt and then washed three times 250 ul/well PBS at 4 degrees C. […] For competition experiments, competitor compounds were diluted in 50 ul/well of PBS, 0.1% BSA and added first to washed wells containing cells as above. […] Incubations, washes and counting were performed as above.

Wild-type CHO cells = assay: FACS staining of wild-type CHO cells; format: binding
Method: (§1) Stable transfectants were isolated essentially as described (Mattheakis et al., 1999). All ScFv FITC expression constructs contain a neo resistance cassette. Primary G418-resistant populations were stained with mAb 179 labeled with fluorescein as follows. Antibody 179 was linked to fluorescein using fluorescein isothiocyanate (FITC, Molecular Probes, Eugene, Oreg.). This modified mAb 179 contained on average six fluoresceins per antibody molecule. Cells, ˜3-5×10^6, were resuspended in 500 μl of PBS, 0.1% BSA containing mAb 179-FITC at a final concentration of 8 μg/ml. Cells were rotated in the dark for 45 min, spun down, and subsequently resuspended in PBS and enrich sorted using a FACStar plus (Becton-Dickinson, San Jose, Calif.) based on the highest fluorescence. Enriched populations were cloned by limiting dilution and subsequently screened by ELISA. Briefly, 96well plates of clones were fixed with 200 μl per well of ice cold methanol for 10 min. Subsequent steps were done at room temperature (rt). Plates were blocked with PBS, 1% BSA for 30 min and then incubated with mAb 179, 1 μg/ml in PBS, 0.1% BSA for 1h. After 3 washes of 10 min each with PBS, wells were incubated with 1 μg/ml goat anti-mouse-HRP (Pierce, Rockford, Ill.) in PBS, 0.1% BSA for 1 h, washed with PBS three times as above, developed with a TMB peroxidase substrate colorometric assay ( Kirkegaard & Perry Laboratories, Gaithersburg, Md.) and the OD415 measured. Reactive clones were expanded, stained with mAb 179-fluorescein as above and analyzed using a FACScan (Becton-Dickinson, San Jose, Calif.) to choose those with the highest expression of the ScFv based on fluorescence. Clones were also analyzed by anti-179 Western blotting to verify the size of the ScFv protein expressed. ScFv-expressing clones were compared to wild-type CHO-K1 cells by FACScan using further reagents as follows in PBS, 0.1% BSA as above for mAb 179-fluorescein staining. FITC-BSA (Sigma, St. Louis, Mo.) was used at a final concentration of 20 μg/ml and DTPA-FITC and In-DTPA-FITC were each used at a final concentration of 2 μg/ml.

[1] = system: FITC ScFv expressed on CHO cells; assay: FACS staining of CHO cells expressing FITC ScFv; format: binding
Method: as §1

Compound	IC50 (ScFv FITC on CHO cells)	Mean (fluorescence, FACS) (Wild-type CHO cells; marker A11)	Median (fluorescence, FACS) (Wild-type CHO cells; marker A11)	Mean (fluorescence, FACS) (Wild-type CHO cells; marker M1)	Median (fluorescence, FACS) (Wild-type CHO cells; marker M1)	Mean (fluorescence, FACS) ([1]; marker A11)	Median (fluorescence, FACS) ([1]; marker A11)	Mean (fluorescence, FACS) ([1]; marker M1)	Median (fluorescence, FACS) ([1]; marker M1)
O=C1OC2(c3ccccc31)c1cc(I)c(O)c(I)c1Oc1c2cc(I)c(O)c1I [erythrosine, reference compound]	309 nM	–	–	–	–	–	–	–	–
Diethylenetriaminepenta-acetic acid (DTPA) coupled to fluorescein [DTPA-FITC]	11.8 nM	13.89	7.99	8.24	7.84	100.62	90.58	98.06	91.40
